Source: the NIST ThermoML archive (doi:10.1021/je034203p)

Columns and labels:
[1] = 298.15 K, 101.3 kPa, Liquid; for viscosity: Capillary tube (Ostwald / Ubbelohde) method
[2] = xn = mol fraction of the nth substance listed; settings: 298.15 K, 101.3 kPa, Liquid; for viscosity: Capillary tube (Ostwald / Ubbelohde) method

CC(C)=O [acetone]
[1]
Settings | mass density [kg/m3] | viscosity [mPa·s]
– | 780.8 | 0.3121

c1ccccc1 [benzene]
[1]
Settings | mass density [kg/m3] | viscosity [mPa·s]
– | 869.7 | 0.608

CCCCO [butan-1-ol]
[1]
Settings | mass density [kg/m3] | viscosity [mPa·s]
– | 806.3 | 2.538

CCC(C)O (stereo not given) [butan-2-ol]
[1]
Settings | mass density [kg/m3] | viscosity [mPa·s]
– | 804.8 | 3.103

CCC(C)=O [butanone]
[1]
Settings | mass density [kg/m3] | viscosity [mPa·s]
– | 797.4 | 0.4011

CCO [ethanol]
[1]
Settings | mass density [kg/m3] | viscosity [mPa·s]
– | 787.4 | 1.112

CCOC(C)=O [ethyl acetate]
[1]
Settings | mass density [kg/m3] | viscosity [mPa·s]
– | 894 | 0.4274

CO [methanol]
[1]
Settings | mass density [kg/m3] | viscosity [mPa·s]
– | 788.1 | 0.5482

COC(C)=O [methyl ethanoate]
[1]
Settings | mass density [kg/m3] | viscosity [mPa·s]
– | 923.9 | 0.3711

CCCO [propan-1-ol]
[1]
Settings | mass density [kg/m3] | viscosity [mPa·s]
– | 800 | 1.954

CC(C)O [propan-2-ol]
[1]
Settings | mass density [kg/m3] | viscosity [mPa·s]
– | 784.3 | 2.044

ClC(Cl)=C(Cl)Cl [tetrachloroethene]
[1]
Settings | mass density [kg/m3] | viscosity [mPa·s]
– | 1610.2 | 0.8474

ClC(Cl)(Cl)Cl [tetrachloromethane]
[1]
Settings | mass density [kg/m3] | viscosity [mPa·s]
– | 1586.1 | 0.9096

Cc1ccccc1 [toluene]
[1]
Settings | mass density [kg/m3] | viscosity [mPa·s]
– | 860.5 | 0.5641

ClC=C(Cl)Cl [trichloroethene]
[1]
Settings | mass density [kg/m3] | viscosity [mPa·s]
– | 1455.7 | 0.551

ClC=C(Cl)Cl [trichloroethene] + CCC(C)=O
[2]
Settings | mass density [kg/m3] | viscosity [mPa·s]
x1 = 0.1004 | 861.2 | 0.4307
x1 = 0.2005 | 924.2 | 0.4566
x1 = 0.3002 | 987.2 | 0.4835
x1 = 0.4005 | 1052.5 | 0.5088
x1 = 0.5005 | 1117.6 | 0.5281
x1 = 0.6007 | 1183.7 | 0.5391
x1 = 0.7004 | 1249.6 | 0.5455
x1 = 0.8004 | 1315.5 | 0.5499
x1 = 0.8998 | 1385.4 | 0.5495
x1 = 1 | 1455.7 | 0.551

ClC=C(Cl)Cl [trichloroethene] + CCC(C)O
[2]
Settings | mass density [kg/m3] | viscosity [mPa·s]
x1 = 0.102 | 868.5 | 2.502
x1 = 0.2035 | 932.3 | 2.019
x1 = 0.304 | 996.3 | 1.641
x1 = 0.4049 | 1061.2 | 1.344
x1 = 0.505 | 1125.4 | 1.128
x1 = 0.6051 | 1190.1 | 0.9463
x1 = 0.7042 | 1255.7 | 0.8155
x1 = 0.8033 | 1322 | 0.7014
x1 = 0.9014 | 1388.3 | 0.6101
x1 = 1 | 1455.7 | 0.551

ClC=C(Cl)Cl [trichloroethene] + CCCCO
[2]
Settings | mass density [kg/m3] | viscosity [mPa·s]
x1 = 0.1018 | 870 | 2.098
x1 = 0.2033 | 934.3 | 1.734
x1 = 0.3038 | 997.5 | 1.429
x1 = 0.4042 | 1061.9 | 1.19
x1 = 0.5046 | 1126.5 | 1.008
x1 = 0.6045 | 1191.4 | 0.8696
x1 = 0.7042 | 1257 | 0.7737
x1 = 0.8025 | 1321.9 | 0.6878
x1 = 0.9014 | 1388.3 | 0.6227
x1 = 1 | 1455.7 | 0.551

ClC=C(Cl)Cl [trichloroethene] + CCCO
[2]
Settings | mass density [kg/m3] | viscosity [mPa·s]
x1 = 0.0848 | 864.2 | 1.705
x1 = 0.1725 | 928.6 | 1.486
x1 = 0.2627 | 992.9 | 1.281
x1 = 0.3567 | 1058.3 | 1.099
x1 = 0.4541 | 1122.4 | 0.9476
x1 = 0.5556 | 1188.3 | 0.8226
x1 = 0.6604 | 1254.3 | 0.7262
x1 = 0.7691 | 1320.6 | 0.6463
x1 = 0.8823 | 1387.5 | 0.5848
x1 = 1 | 1455.7 | 0.551

ClC=C(Cl)Cl [trichloroethene] + CCO
[2]
Settings | mass density [kg/m3] | viscosity [mPa·s]
x1 = 0.0673 | 852.4 | 1.047
x1 = 0.1397 | 918.2 | 0.9855
x1 = 0.2173 | 983.9 | 0.9272
x1 = 0.3018 | 1049.4 | 0.8651
x1 = 0.3932 | 1115.8 | 0.8082
x1 = 0.493 | 1182.4 | 0.7528
x1 = 0.602 | 1249.4 | 0.6984
x1 = 0.7215 | 1317.1 | 0.647
x1 = 0.8563 | 1385.6 | 0.5974
x1 = 1 | 1455.7 | 0.551

ClC=C(Cl)Cl [trichloroethene] + CCOC(C)=O
[2]
Settings | mass density [kg/m3] | viscosity [mPa·s]
x1 = 0.1086 | 944.2 | 0.4658
x1 = 0.2151 | 998.6 | 0.5023
x1 = 0.3189 | 1052.8 | 0.5302
x1 = 0.4219 | 1108.6 | 0.5564
x1 = 0.5226 | 1163.7 | 0.5685
x1 = 0.6215 | 1220.2 | 0.5705
x1 = 0.7185 | 1277.3 | 0.5681
x1 = 0.8143 | 1335.6 | 0.563
x1 = 0.908 | 1393.5 | 0.5589
x1 = 1 | 1455.7 | 0.551

ClC=C(Cl)Cl [trichloroethene] + CO
[2]
Settings | mass density [kg/m3] | viscosity [mPa·s]
x1 = 0.0477 | 853.7 | 0.5565
x1 = 0.1014 | 920.3 | 0.5667
x1 = 0.1616 | 985.5 | 0.5738
x1 = 0.2308 | 1052.1 | 0.5833
x1 = 0.3105 | 1117.9 | 0.595
x1 = 0.4033 | 1184.5 | 0.6017
x1 = 0.5125 | 1251.2 | 0.6021
x1 = 0.643 | 1318.4 | 0.5908
x1 = 0.8021 | 1386.3 | 0.575
x1 = 1 | 1455.7 | 0.551

ClC=C(Cl)Cl [trichloroethene] + COC(C)=O
[2]
Settings | mass density [kg/m3] | viscosity [mPa·s]
x1 = 0.09 | 972.6 | 0.4128
x1 = 0.182 | 1022.8 | 0.4443
x1 = 0.2755 | 1074.4 | 0.4699
x1 = 0.372 | 1125.3 | 0.4925
x1 = 0.4703 | 1177.5 | 0.5147
x1 = 0.5713 | 1230.9 | 0.5325
x1 = 0.6748 | 1283.9 | 0.5447
x1 = 0.7806 | 1341 | 0.555
x1 = 0.8886 | 1397.9 | 0.5598
x1 = 1 | 1455.7 | 0.551

ClC=C(Cl)Cl [trichloroethene] + Cc1ccccc1
[2]
Settings | mass density [kg/m3] | viscosity [mPa·s]
x1 = 0.1166 | 917.5 | 0.5592
x1 = 0.2291 | 975.6 | 0.5535
x1 = 0.3367 | 1033 | 0.5498
x1 = 0.4417 | 1090.9 | 0.5452
x1 = 0.5426 | 1149 | 0.5432
x1 = 0.64 | 1210.5 | 0.5445
x1 = 0.7348 | 1270.8 | 0.5454
x1 = 0.8257 | 1331.5 | 0.5477
x1 = 0.9147 | 1393.2 | 0.5495
x1 = 1 | 1455.7 | 0.551

ClC=C(Cl)Cl [trichloroethene] + ClC(Cl)(Cl)Cl
[2]
Settings | mass density [kg/m3] | viscosity [mPa·s]
x1 = 0.1068 | 1568.1 | 0.8568
x1 = 0.212 | 1552.3 | 0.8098
x1 = 0.315 | 1536.3 | 0.7632
x1 = 0.4171 | 1520.8 | 0.7186
x1 = 0.5178 | 1506.7 | 0.6826
x1 = 0.6175 | 1495.3 | 0.6511
x1 = 0.7152 | 1484.6 | 0.6226
x1 = 0.8114 | 1475 | 0.5965
x1 = 0.9064 | 1464.6 | 0.5727
x1 = 1 | 1455.7 | 0.551

ClC=C(Cl)Cl [trichloroethene] + c1ccccc1
[2]
Settings | mass density [kg/m3] | viscosity [mPa·s]
x1 = 0.0997 | 923.8 | 0.5937
x1 = 0.1995 | 981.7 | 0.584
x1 = 0.2988 | 1037.2 | 0.5761
x1 = 0.3987 | 1094.6 | 0.5682
x1 = 0.4986 | 1152.3 | 0.5621
x1 = 0.5991 | 1211 | 0.5573
x1 = 0.6991 | 1269.8 | 0.5573
x1 = 0.7989 | 1330.3 | 0.5517
x1 = 0.8998 | 1391.9 | 0.5499
x1 = 1 | 1455.7 | 0.551
